Data from the supplement of paper PMC4862054.

Legend:
Assay in all cases: normalised response (% of control), CellTiter-Glo; higher = more viable cells (100 = DMSO, 0 = benzethonium chloride kill control)
Conditions in all cases: incubation time: 72 h
MDA-MB-453 = test system: MDA-MB-453
Method in brief: (§1)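 A 20 µl suspension of breast cancer cells was seeded into each well of 384-well plates containing compound at 5 concentrations in 10-fold steps over a compound-specific 10,000-fold range. After 72 h incubation, CellTox Green fluorescence (485/520 nm) was read first, and CellTiter-Glo luminescence was read after 10 min at room temperature. Each plate was normalised against 0.1 % DMSO (100) and a positive kill control (0), and each value is the normalised signal at one concentration.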

MDA-MB-468 = test system: MDA-MB-468
Method in brief: as §1

Hs578T = test system: Hs578T
Method in brief: as §1

CAL-148 = test system: CAL-148
Method in brief: as §1

MDA-MB-231 = test system: MDA-MB-231
Method in brief: as §1

DU-4475 = test system: DU-4475
Method in brief: as §1

CAL-51 = test system: CAL-51
Method in brief: as §1

BT-549 = test system: BT-549
Method in brief: as §1

MDA-MB-436 = test system: MDA-MB-436
Method in brief: as §1

HCC1937 = test system: HCC1937
Method in brief: as §1

MCF-10A = test system: MCF-10A
Method in brief: as §1

CAL-120 = test system: CAL-120
Method in brief: as §1

CAL-85-1 = test system: CAL-85-1
Method in brief: as §1

SK-BR-3 = test system: SK-BR-3
Method in brief: as §1

HDQ-P1 = test system: HDQ-P1
Method in brief: as §1

MFM-223 = test system: MFM-223
Method in brief: as §1

HCC1143 = test system: HCC1143
Method in brief: as §1

HCC1599 = test system: HCC1599
Method in brief: as §1

BT-474 = test system: BT-474
Method in brief: as §1

Compound | normalised response (MDA-MB-453) [%] | normalised response (MDA-MB-468) [%] | normalised response (Hs578T) [%] | normalised response (CAL-148) [%] | normalised response (MDA-MB-231) [%] | normalised response (DU-4475) [%] | normalised response (CAL-51) [%] | normalised response (BT-549) [%] | normalised response (MDA-MB-436) [%] | normalised response (HCC1937) [%] | normalised response (MCF-10A) [%] | normalised response (CAL-120) [%] | normalised response (CAL-85-1) [%] | normalised response (SK-BR-3) [%] | normalised response (HDQ-P1) [%] | normalised response (MFM-223) [%] | normalised response (HCC1143) [%] | normalised response (HCC1599) [%] | normalised response (BT-474) [%]
Cc1ccc(C(=O)N(CCCN)[C@@H](c2oc3cc(Cl)ccc3c(=O)c2Cc2ccccc2)C(C)C)cc1 (0.01 nM) | 101 | 93 | 97.8 | 91.8 | 99 | 96.6 | 81.7 | 104 | 97.3 | 102 | 97.8 | 96.6 | 93.8 | 93.1 | 103 | 92.1 | 102 | 112 | 95.3
O=C(O)c1ccc(-c2c[nH]c3ncc(-c4ccccc4)cc23)cc1C1CCCC1 (1 nM) | 99.3 | 92.9 | 98.3 | 96.5 | 94.2 | 97.3 | 125 | 103 | 92.8 | 91.1 | 89.7 | 94.8 | 98.4 | 89.6 | 93.7 | 94.5 | 97.5 | 83.8 | 95.4
O=C(O)c1ccc(-c2c[nH]c3ncc(-c4ccccc4)cc23)cc1C1CCCC1 (10 nM) | 91.8 | 96 | 99.6 | 90.4 | 94 | 99.2 | 105 | 98.7 | 95.1 | 101 | 95.9 | 95.3 | 96.3 | – | 95.9 | 94 | 102 | 108 | 91.8
NC(=O)Nc1cc(-c2cccc(F)c2)sc1C(=O)N[C@H]1CCCNC1 [AZD7762] (0.1 nM) | 99.9 | 100 | 99.2 | 102 | 105 | 108 | 77 | 105 | 97.5 | 94.3 | 98.2 | 105 | 98.4 | 105 | 106 | 109 | 98.4 | 89.9 | 105
NC(=O)Nc1cc(-c2cccc(F)c2)sc1C(=O)N[C@H]1CCCNC1 [AZD7762] (1 nM) | 94.1 | 102 | 101 | 102 | 103 | 104 | 95.7 | 95.6 | 106 | 98.7 | 103 | 99.7 | 98.5 | 105 | 91.2 | 102 | 103 | 95.7 | 114
CO[C@H]1/C=C\C=C(/C)C(=O)NC2=CC(=O)C(NCCN(C)C)=C(C[C@@H](C)C[C@H](OC)[C@H](O)[C@@H](C)/C=C(\C)[C@@H]1OC(N)=O)C2=O [Alvespimycin] (1 nM) | 113 | 107 | 101 | 112 | 102 | 105 | 112 | 95.6 | 104 | 91.6 | 106 | 100 | 97.8 | 105 | 102 | 105 | 97.5 | 102 | 120
CN(C)/N=N/c1[nH]cnc1C(N)=O [Dacarbazine] (10 nM) | 111 | 106 | 105 | 102 | 104 | 101 | 103 | 101 | 101 | 96.3 | 101 | 98.3 | 102 | – | 101 | 104 | 103 | 85.9 | 105
COc1cc2ncnc(Nc3ccc(F)c(Cl)c3)c2cc1NC(=O)/C=C/CN1CCCCC1 [Dacomitinib] (1 nM) | 93.8 | 103 | 105 | 112 | 101 | 100 | 108 | 99.8 | 97.8 | 94.3 | 97.7 | 100 | 91.2 | – | 90.7 | 101 | 106 | 102 | 103
Cc1ccc(-n2nc(C(C)(C)C)cc2NC(=O)Nc2ccc(OCCN3CCOCC3)c3ccccc23)cc1 [Doramapimod] (10 nM) | 85.8 | 94 | 101 | 80.3 | 96.3 | 98.3 | 121 | 99.3 | 98.1 | 91.7 | 90.7 | 94.5 | 96 | – | 95.5 | 89.5 | 98.3 | 103 | 93.5
C#Cc1cccc(Nc2ncnc3cc(OCCOC)c(OCCOC)cc23)c1 [Erlotinib] (10 nM) | 107 | 105 | 110 | 113 | 103 | 105 | 74.3 | 97.3 | 103 | 96 | 98.8 | 102 | 102 | – | 91.7 | 111 | 106 | 101 | 99.9
COc1cc([C@@H]2c3cc4c(cc3[C@@H](O[C@@H]3O[C@@H]5CO[C@@H](C)O[C@H]5[C@H](O)[C@H]3O)[C@H]3COC(=O)[C@H]23)OCO4)cc(OC)c1O [Etoposide] (10 nM) | 109 | 98.6 | 104 | 106 | 105 | 104 | 98.9 | 97.8 | 106 | 103 | 113 | 103 | 102 | – | 99.3 | 109 | 107 | 99.7 | 103
CC(C)Cn1cnc2c(N)nc3ccccc3c21 [Imiquimod] (2.5 nM) | 104 | 104 | 111 | 107 | 103 | 109 | 114 | 95 | 95.8 | 96.2 | 105 | 103 | 98.4 | – | 97.2 | 105 | 103 | 113 | 104
Cn1c(Nc2ccc(C(F)(F)F)cc2)nc2cc(Oc3ccnc(-c4ncc(C(F)(F)F)[nH]4)c3)ccc21 [RAF265] (1 nM) | 127 | 104 | 105 | 112 | 98.5 | 109 | 111 | 96.7 | 105 | 103 | 112 | 104 | 104 | – | 100 | 114 | 109 | 102 | 106
CS(=O)(=O)c1ccc(C2=C(c3ccccc3)C(=O)OC2)cc1 [Rofecoxib] (10 nM) | 110 | 104 | 114 | 115 | 102 | 105 | 73 | 89.7 | 102 | 104 | 107 | 102 | 102 | – | 102 | 113 | 106 | 89 | 103
CNCc1ccc(-c2[nH]c3cc(F)cc4c3c2CCNC4=O)cc1 [Rucaparib] (10 nM) | 93.9 | 92.3 | 98.5 | 82.7 | 97.2 | 98.3 | 112 | 96.9 | 99.5 | 102 | 98.4 | 94.2 | 98.9 | – | 96.8 | 93.5 | 100 | 102 | 93.6
CCC(C)(C)C(=O)O[C@H]1C[C@@H](C)C=C2C=C[C@H](C)[C@H](CC[C@@H]3C[C@@H](O)CC(=O)O3)[C@H]21 [Simvastatin] (1 nM) | 106 | 100 | 103 | 102 | 94.8 | 102 | 114 | 98.9 | – | 103 | 107 | 100 | 96.8 | 105 | 98.5 | – | 102 | 111 | –
CCC(C)(C)C(=O)O[C@H]1C[C@@H](C)C=C2C=C[C@H](C)[C@H](CC[C@@H]3C[C@@H](O)CC(=O)O3)[C@H]21 [Simvastatin] (10 nM) | 98.3 | 103 | 96.3 | 103 | 99.2 | 104 | 115 | – | 98.1 | – | 108 | 96 | 96.2 | – | 103 | 102 | 98.7 | – | –
CN(N=O)C(=O)N[C@@H](C=O)[C@@H](O)[C@H](O)[C@H](O)CO [Streptozocin] (10 nM) | 106 | 114 | 104 | 108 | 104 | 106 | 77.4 | – | 98.1 | 109 | 105 | 100 | 98.9 | 102 | 102 | 108 | 105 | – | 109
CN[C@@H]1C[C@H]2O[C@@](C)([C@@H]1OC)n1c3ccccc3c3c4c(c5c6ccccc6n2c5c31)C(=O)N[C@H]4O [UCN-01] (10 nM) | 91.8 | 97.3 | 92.4 | 108 | 81.1 | 101 | 106 | 98.4 | 106 | 94.3 | 90.5 | 80.2 | 95.1 | – | 96.6 | 102 | 95.9 | 94 | 83.8
Clc1ccc(Nc2nnc(Cc3ccncc3)c3ccccc23)cc1 [Vatalanib] (10 nM) | 104 | 102 | 100 | 109 | 104 | 106 | 127 | 95 | 107 | 102 | 105 | 96 | 100 | – | 102 | 102 | 102 | 89.6 | 105
CCC1=C[C@@H]2CN(C1)Cc1c([nH]c3ccccc13)[C@@](C(=O)OC)(c1cc3c(cc1OC)N(C)[C@H]1[C@@](O)(C(=O)OC)[C@H](OC(C)=O)[C@]4(CC)C=CCN5CC[C@]31[C@@H]54)C2 [Vinorelbine] (10 nM) | 80.7 | 95.8 | 101 | 107 | 101 | 101 | 87.5 | 97.6 | 94.4 | 99.1 | 102 | 96.6 | 98.1 | – | 99.4 | 106 | 97.5 | 84.7 | 99.3
